Measurements: patent US20260347435A1, “y-SECRETASE INHIBITOR, Aß-PEPTIDE PRODUCTION INHIBITOR, AND PHARMACEUTICAL” (priority 2022, published 2026)

Columns and labels:
[1] = molecular target: T1, human γ-secretase complex, APP as substrate (Homo sapiens, UniProt P49768); assay: β-galactosidase assay of γ-secretase-expressing yeast with related-art GSI, APP substrate; assay type: cell-based
T1 construct: substrate APPC55-Gal4, β-galactosidase reporter
Procedure: The yeast expressing the γ-secretase complex, the substrate APPC55-Gal4, and the three-finger toxin produced in the foregoing was inoculated in 1.5 mL of a SD-LWU medium, and the resultant was shake-cultured (180 rpm) at 30 °C until its turbidity became from 0.8 to 1.0. After that, the cultured product was centrifuged (15,000 rpm, 3 minutes, room temperature), and cells were recovered. The cells were washed with 1 mL of cooling water, and were then suspended in 30 μL of a Lysis buffer (20 mM Tris-HCl, pH: 8.0, 10 mM MgCl2, 50 mM KCl, 1 mM EDTA, 5% glycerol, and 1 mM DTT), followed by the addition of an appropriate amount of acid-treated glass beads (425 μm to 600 μm, Sigma-Aldrich Co. LLC) thereto. After that, the mixture was stirred with a vortex mixer so that the cells were crushed. The crushed liquid was centrifuged (15,000 rpm, 10 minutes, 4 °C) to provide a lysate. 80 Microliters of 4 mg/ml ortho-nitrophenyl-β-galactoside (ONPG) was added to the mixed liquid of 10 μL of the lysate and 400 μL of a Z buffer (60 mM Na2HPO4, 40 mM NaH2PO4-2H2O, 10 mM KCl, 1 mM MgSO4-7H2O, and 0.27% 2-mercaptoethanol) to start a reaction. […] After that, the absorbance (A420) of nitrophenol produced in the reaction liquid at 420 nm was measured. Further, the protein concentration of the lysate was determined by a Bradford method (Bio-Rad Laboratories, Inc.), and β-galactosidase activity was calculated [β-galactosidase unit/mg protein=1,000×A420/{time (min)×protein concentration (mg/μL)×liquid amount (μL)}].

[2] = molecular target: T2, human γ-secretase complex, Notch1 as substrate (Homo sapiens, UniProt P49768); assay: β-galactosidase assay of γ-secretase-expressing yeast with related-art GSI, Notch substrate; assay type: cell-based; conditions: yeast (FIG. 7)
T2 construct: substrate mouse Notch1(1704-1755)-Gal4, β-galactosidase reporter
Procedure: The yeast expressing the γ-secretase complex, the substrate Notch-Gal4, and the three-finger toxin produced in the foregoing was inoculated in 15 mL of a SD-LWU medium, and the resultant was shake-cultured (180 rpm) at 30 °C until its turbidity became from 0.8 to 1.0. After that, a 1.5 mL aliquot of the cultured product was dispensed and centrifuged (15,000 rpm, 3 minutes, room temperature), and cells were recovered. The cells were washed with 1 mL of cooling water, and were then suspended in 30 μL of a Lysis buffer (20 mM Tris-HCl, pH: 8.0, 10 mM MgCl2, 50 mM KCl, 1 mM EDTA, 5% glycerol, and 1 mM DTT), followed by the addition of an appropriate amount of acid-treated glass beads (425 μm to 600 μm, Sigma-Aldrich Co. LLC) thereto. After that, the mixture was stirred with a vortex mixer so that the cells were crushed. The crushed liquid was centrifuged (15,000 rpm, 10 minutes, 4 °C) to provide a lysate. […] After that, the absorbance (A420) of nitrophenol produced in the reaction liquid at 420 nm was measured. Further, the protein concentration of the lysate was determined by a Bradford method (Bio-Rad Laboratories, Inc.), and β-galactosidase activity was calculated: β-galactosidase unit/mg protein=1,000×A420/{time (min)×protein concentration (mg/μL)×liquid amount (μL)}.

[3] = tested on: γ-secretase; conditions: phase III clinical trials; trials stopped; cited from earlier work
[4] = tested on: γ-secretase; conditions: verification experiment; pseudo-inhibitor; cited from earlier work

C[C@H](NC(=O)Cc1cc(F)cc(F)c1)C(=O)N[C@H](C(=O)OC(C)(C)C)c1ccccc1 [DAPT]
suppression of the cleavage of the APP ([1]; yeast (FIG. 7)): suppressed the cleavage of each of the APP and the Notch
suppression of the cleavage of the Notch [2]: suppressed the cleavage of each of the APP and the Notch

NC(=O)[C@@H](CCC(F)(F)F)N(Cc1ccc(-c2ncon2)cc1F)S(=O)(=O)c1ccc(Cl)cc1 [avagacestat]
serious side effects and deterioration of a cognitive function [3]: serious side effects and the deterioration of a cognitive function were observed

O=S(=O)(N[C@H](CO)C(C(F)(F)F)C(F)(F)F)c1ccc(Cl)s1 [begacestat]
suppression of the cleavage of the APP versus the cleavage of the Notch ([1]; 1 μM, 3 μM, and 10 μM, wild-type yeast and pdr1Δpdr3Δ strain, vs mock with dimethyl sulfoxide (FIG. 7)): the suppression of the cleavage of the APP was stronger than the suppression of the cleavage of the Notch
APP-specific cleavage-suppressing effect ([1]; yeast, APP versus Notch cleavage (FIG. 7)): APP-specific inhibition by begacestat was observed

CC(C)[C@H](O)C(=O)N[C@@H](C)C(=O)N[C@@H]1C(=O)N(C)CCc2ccccc21 [semagacestat]
serious side effects and deterioration of a cognitive function [3]: serious side effects and the deterioration of a cognitive function were observed
discharge of a decomposition product to the outside of a cell [4]: inhibits the discharge of a decomposition product to the outside of a cell
inhibition of Aβ production [4]: does not inhibit Aβ production
